Experimental data from patent publication US8435990B2, “Dihydropyrimidone amides as P2X7 modulators” (Roche Palo Alto LLC, priority 2009, dated 2013).

target: T1, human P2X7 (Homo sapiens, UniProt Q99572); assay: P2X7 modulator pIC50 of Table 1 (assay not given; Intracellular Calcium Flux (FLIPR) Assay assumed); type: cell-based
T1 construct: 1321N1 cells stably expressing the full length human P2X7 gene (1321N1-hP2X7)
T1 sequence (Q99572 1-595): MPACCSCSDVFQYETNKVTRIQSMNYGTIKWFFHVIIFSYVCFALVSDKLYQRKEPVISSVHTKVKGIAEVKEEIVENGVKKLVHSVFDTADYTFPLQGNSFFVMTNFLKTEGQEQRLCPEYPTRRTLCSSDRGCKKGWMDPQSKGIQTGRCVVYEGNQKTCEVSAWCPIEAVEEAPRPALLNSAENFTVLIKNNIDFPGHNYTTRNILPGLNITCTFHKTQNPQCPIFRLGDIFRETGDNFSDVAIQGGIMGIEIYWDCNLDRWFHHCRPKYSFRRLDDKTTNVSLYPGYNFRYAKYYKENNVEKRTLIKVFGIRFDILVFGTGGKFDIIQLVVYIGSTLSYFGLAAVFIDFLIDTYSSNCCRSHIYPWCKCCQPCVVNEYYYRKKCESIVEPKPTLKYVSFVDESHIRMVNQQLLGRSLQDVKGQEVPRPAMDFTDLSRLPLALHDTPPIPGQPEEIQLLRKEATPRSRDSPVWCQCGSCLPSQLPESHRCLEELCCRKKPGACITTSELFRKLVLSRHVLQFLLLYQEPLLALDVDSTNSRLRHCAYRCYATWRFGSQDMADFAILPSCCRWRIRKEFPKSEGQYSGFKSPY
Experimental: Intracellular Calcium Flux (FLIPR) Assay
Stock solutions of compounds were prepared from powders as a 10 mM DMSO stock solution. These solutions were stored at RT during the two week period of these experiments to prevent freeze-thaw of the DMSO stocks. The DMSO stocks were added to the appropriate assay buffer at a concentration of 10 μM, and then diluted serially to the final concentrations that were tested. No observable precipitate was formed at any time during this process. The aqueous solutions of compounds as well as ATP (Sigma A7699) and BzATP (Sigma B6396) were prepared fresh for each day of experiment.
1321N1 cells stably expressing the full length human P2X7 gene (1321N1-hP2X7) and HEK293 cells stably expressing the full length rat P2X7 gene (HEK293-rP2X7) were obtained from the Roche Cell Culture Facility. 1321N1-hP2X7 cells were grown in Dulbecco's Modified Eagle's Medium (DMEM) high glucose supplemented with 10% FBS and 250 μg/mL G418. HEK293-rP2X7 cells were grown in DMEM/F-12 supplemented with 10% FBS, 1 mM CaCl2, 2 mM MgCl2, 2 mM L-Glutamine and 500 μg/ml G418. Cells were split such that they never became >70% confluent.
On the day prior to the experiment, 1321N1-hP2X7 or HEK293-rP2X7 cells were released into suspension with calcium-free PBS+Versene and washed by centrifugation with calcium-free PBS to remove the Versene. Cells were resuspended in growth medium at a density of 2.5×10^5 cells/mL and seeded into black walled, clear bottom 96 well plates (50,000 cells/well) approximately 18 hr prior to intracellular calcium flux experiments.
On the day of the experiment, plates were washed with FLIPR buffer (calcium- and magnesium-free Hank's Balanced Salt Solution (HBSS) supplemented with 10 mM Hepes, 2.5 mM probenecid and 2 mM calcium chloride) using a BIO-TEK 96 channel plate washer and incubated with […] fluo-3 dye at 37° C. for one hr. The dye was then removed by plate washing and the cells were allowed to equilibrate for 20 min at room temperature with antagonist or vehicle (FLIPR buffer). Agonist (100 μM BzATP final concentration for hP2X7; 5μM BzATP final concentration or rP2X7) was added online with the FLIPR and fluorescence measurements made at 1 sec intervals for 60 sec followed by 3 sec intervals for a further 4 min (5 min total). A final addition of 5 μM ionomycin was made and the maximal BzATP-evoked fluorescence normalized to the maximal ionomycin-evoked fluorescence.

Row | Compound | IC50
1 | Cc1cc2cn[nH]c2cc1NC(=O)C1=CN(C)C(=O)N[C@H]1c1ccc(F)cc1 [Compound 47, (S)-4-(4-Fluoro-phenyl)-1-methyl-2-oxo-1,2,3,4-tetrahydro-pyrimidine-5-carboxylic acid (5-methyl-1H-indazol-6-yl)-amide] | 18.2 nM
2 | Cc1ccc(-n2ccc(=O)[nH]c2=O)cc1NC(=O)C1=CN(C)C(=O)N[C@H]1c1ccc(F)cc1 [Compound 48, (S)-4-(4-Fluoro-phenyl)-1-methyl-2-oxo-1,2,3,4-tetrahydro-pyrimidine-5-carboxylic acid [5-(2,4-dioxo-3,4-dihydro-2H-pyrimidin-1-yl)-2-methyl-phenyl]-amide] | 26 nM
3 | Cc1ccc(-n2ncccc2=O)cc1NC(=O)C1=CN(C)C(=O)N[C@H]1c1cccc(F)c1 [Compound 49, (S)-4-(3-Fluoro-phenyl)-1-methyl-2-oxo-1,2,3,4-tetrahydro-pyrimidine-5-carboxylic acid [2-methyl-5-(6-oxo-6H-pyridazin-1-yl)-phenyl]-amide] | 105 nM
4 | Cc1ccc(-n2cccc(C)c2=O)cc1NC(=O)C1=CN(C)C(=O)N[C@H]1c1ccc(F)cc1 [Compound 50, (S)-4-(4-Fluoro-phenyl)-1-methyl-2-oxo-1,2,3,4-tetrahydro-pyrimidine-5-carboxylic acid [2-methyl-5-(3-methyl-2-oxo-2H-pyridin-1-yl)-phenyl]-amide] | 55 nM
5 | CN1C=C(C(=O)Nc2cccc3c(=O)n(C)ccc23)[C@H](c2ccc(F)cc2)NC1=O [Compound 51, (S)-4-(4-Fluoro-phenyl)-1-methyl-2-oxo-1,2,3,4-tetrahydro-pyrimidine-5-carboxylic acid (2-methyl-1-oxo-1,2-dihydro-isoquinolin-5-yl)-amide] | 63.1 nM
6 | Cc1ccc(-c2ccnn(C)c2=O)cc1NC(=O)C1=CN(C)C(=O)NC1C1CCC(F)(F)CC1 (stereo not drawn) [Compound 52, 4-(4,4-Difluoro-cyclohexyl)-1-methyl-2-oxo-1,2,3,4-tetrahydro-pyrimidine-5-carboxylic acid [2-methyl-5-(2-methyl-3-oxo-2,3-dihydro-pyridazin-4-yl)-phenyl]-amide] | 339 nM
7 | CN1C=C(C(=O)Nc2cccc3c(=O)n(CCO)ccc23)[C@H](c2ccc(F)cc2)NC1=O [Compound 53, (S)-4-(4-Fluoro-phenyl)-1-methyl-2-oxo-1,2,3,4-tetrahydro-pyrimidine-5-carboxylic acid [2-(2-hydroxy-ethyl)-1-oxo-1,2-dihydro-isoquinolin-5-yl]-amide] | 53.1 nM
8 | Cc1ccc(-n2ccccc2=O)cc1NC(=O)C1=CN(C)C(=O)N[C@H]1c1ccc(F)cc1 [Compound 54, (S)-4-(4-Fluoro-phenyl)-1-methyl-2-oxo-1,2,3,4-tetrahydro-pyrimidine-5-carboxylic acid [2-methyl-5-(2-oxo-2H-pyridin-1-yl)-phenyl]-amide] | 21.6 nM
9 | COc1ccc(-c2ccc(C)c(NC(=O)C3=CN(C)C(=O)N[C@H]3c3ccc(F)cc3)c2)nn1 [Compound 55, (S)-4-(4-Fluoro-phenyl)-1-methyl-2-oxo-1,2,3,4-tetrahydro-pyrimidine-5-carboxylic acid [5-(6-methoxy-pyridazin-3-yl)-2-methyl-phenyl]-amide] | 11 nM
10 | Cc1ccc(-n2c(=O)cc[nH]c2=O)cc1NC(=O)C1=CN(C)C(=O)N[C@H]1c1ccc(F)cc1 [Compound 56, (S)-4-(4-Fluoro-phenyl)-1-methyl-2-oxo-1,2,3,4-tetrahydro-pyrimidine-5-carboxylic acid [5-(2,6-dioxo-3,6-dihydro-2H-pyrimidin-1-yl)-2-methyl-phenyl]-amide] | 3160 nM

Other lines, results leading:

Row | IC50 | Compound
11 | 3470 nM | Cc1ccc(-c2ccnn(C)c2=O)cc1NC(=O)C1=CN(C)C(=O)N[C@H]1c1ccccc1 [Compound 57, (S)-1-Methyl-2-oxo-4-phenyl-1,2,3,4-tetrahydro-pyrimidine-5-carboxylic acid [2-methyl-5-(2-methyl-3-oxo-2,3-dihydro-pyridazin-4-yl)-phenyl]-amide]
12 | 40.3 nM | Cc1cc2cnn(CC(=O)N(C)C)c2cc1NC(=O)C1=CN(C)C(=O)N[C@H]1c1ccc(F)cc1 [Compound 58]
13 | 16.8 nM | Cc1ccc(-c2ccc(=O)n(CCO)n2)cc1NC(=O)C1=CN(C)C(=O)N[C@H]1c1ccc(F)cc1 [Compound 59, (S)-4-(4-Fluoro-phenyl)-1-methyl-2-oxo-1,2,3,4-tetrahydro-pyrimidine-5-carboxylic acid {5-[1-(2-hydroxy-ethyl)-6-oxo-1,6-dihydro-pyridazin-3-yl]-2-methyl-phenyl}-amide]
14 | 5.5 nM | Cc1ccc(-c2cccn(C)c2=O)cc1NC(=O)C1=CN(C)C(=O)N[C@H]1c1ccc(F)cc1 [Compound 60, (S)-4-(4-Fluoro-phenyl)-1-methyl-2-oxo-1,2,3,4-tetrahydro-pyrimidine-5-carboxylic acid [2-methyl-5-(1-methyl-2-oxo-1,2-dihydro-pyridin-3-yl)-phenyl]-amide]
15 | 40.7 nM | COC[C@H](O)Cn1nc(-c2ccc(C)c(NC(=O)C3=CN(C)C(=O)N[C@H]3c3ccc(F)cc3)c2)ccc1=O [Compound 61, (S)-4-(4-Fluoro-phenyl)-1-methyl-2-oxo-1,2,3,4-tetrahydro-pyrimidine-5-carboxylic acid {5-[1-((R)-2-hydroxy-3-methoxy-propyl)-6-oxo-1,6-dihydro-pyridazin-3-yl]-2-methyl-phenyl}-amide]
16 | 15 nM | Cc1cc(Cl)c(OCCO)cc1NC(=O)C1=CN(C)C(=O)NC1c1ccccc1 (stereo not drawn) [Compound 62, 1-Methyl-2-oxo-4-phenyl-1,2,3,4-tetrahydro-pyrimidine-5-carboxylic acid [4-chloro-5-(2-hydroxy-ethoxy)-2-methyl-phenyl]-amide]
17 | 51.9 nM | Cc1cc(Cl)c(-n2ncccc2=O)cc1NC(=O)C1=CN(C)C(=O)N[C@H]1c1ccc(F)cc1 [Compound 63, (S)-4-(4-Fluoro-phenyl)-1-methyl-2-oxo-1,2,3,4-tetrahydro-pyrimidine-5-carboxylic acid [4-chloro-2-methyl-5-(6-oxo-6H-pyridazin-1-yl)-phenyl]-amide]
18 | 16.6 nM | CCn1c(=O)cnn(-c2ccc(C)c(NC(=O)C3=CN(C)C(=O)N[C@H]3c3ccc(F)cc3)c2)c1=O [Compound 64, (S)-4-(4-Fluoro-phenyl)-1-methyl-2-oxo-1,2,3,4-tetrahydro-pyrimidine-5-carboxylic acid [5-(4-ethyl-3,5-dioxo-4,5-dihydro-3H-[1,2,4]triazin-2-yl)-2-methyl-phenyl]-amide]
19 | 15.5 nM | Cc1ccc2c(C)c(NC(=O)C3=CN(C)C(=O)N[C@H]3c3ccc(F)cc3)ccc2n1 [Compound 65, (S)-4-(4-Fluoro-phenyl)-1-methyl-2-oxo-1,2,3,4-tetrahydro-pyrimidine-5-carboxylic acid (2,5-dimethyl-quinolin-6-yl)-amide]
20 | 19.5 nM | Cc1cc(Cl)c(-n2cccc(C)c2=O)cc1NC(=O)C1=CN(C)C(=O)N[C@H]1c1ccc(F)cc1 [Compound 66, (S)-4-(4-Fluoro-phenyl)-1-methyl-2-oxo-1,2,3,4-tetrahydro-pyrimidine-5-carboxylic acid [4-chloro-2-methyl-5-(3-methyl-2-oxo-2H-pyridin-1-yl)-phenyl]-amide]
21 | 37.6 nM | Cc1ccc(-n2ccc(=O)n(C)c2=O)cc1NC(=O)C1=CN(C)C(=O)N[C@H]1c1ccc(F)cc1 [Compound 68, (S)-4-(4-Fluoro-phenyl)-1-methyl-2-oxo-1,2,3,4-tetrahydro-pyrimidine-5-carboxylic acid [2-methyl-5-(3-methyl-2,4-dioxo-3,4-dihydro-2H-pyrimidin-1-yl)-phenyl]-amide]
